Results taken from patent US20050020993A1, “Administration of therapeutic or diagnostic agents using interlabial pad” (priority 2001, published 2005).

Assay: circulating plasma concentration of estradiol from an ILP system in HRT
Assay type: in vivo
Details: ILP (interlabial pad) system releasing 100 mg/day of estradiol as its 3-acetate ester; hormone replacement therapy
Excerpt: In one embodiment, a kit is provided for administering the medication from the drug delivery device. The kit includes an interlabial pad, and a package such as a plastic vial or a plastic or foil container, for packaging the interlabial pad. The kit can also include directions for the use of the pad. The pad can contain a unit dose of the medication, for example an anti-infective, such as gynelotrimin. Another example is the delivery of estradiol to treat vaginal atrophy or for hormone replacement therapy (HRT). In HRT, and ILP system releasing […] of estradiol as its 3-acetate ester maintains a circulating plasma concentration of 300 pmol/L of the drug, which is within the clinically desirable range for HRT.

C[C@]12CC[C@@H]3c4ccc(O)cc4CC[C@H]3[C@@H]1CC[C@@H]2O [estradiol]
circulating plasma concentration: 300 pmol/L
